8 substances from patent publication US8853490B2 (priority 2010, dated 2014) can be followed below.

Where two headings read alike, the source gives them in different places.

Experiment [1] has as its system Diplodia maydis (DMA; isolate Warren-IN-96). In kind it is cell-based.
Experiment [2] deals with Colletotrichum graminicola (CGR; isolate Carroll-IA-99). In kind it is cell-based.

For “LB-5220 (r2 5G7): LBNL variant generated through gene shuffling of the LB-5220 mature peptide coding sequence (LKYTGTCRRANNQCKYKGQNNRDTFVKCPTFANKKCTRDGAKCSFDSYSRAVTCD; Synthetic peptide LB-5220 (r2-5G7))”, the “In vitro antifungal activity (IC50) against D. maydis (DMA)” value (shortened to “In vitro antifungal activity … (DMA)”) in experiment [1] (high salt conditions) turned out to be 12 ppm; in experiment [1] (low salt conditions), 0.1 ppm. For the same substance, the “In vitro antifungal activity (IC50) against C. graminicola (CGR)” value (“In vitro antifungal activity (IC50) … (CGR)” below) in experiment [2] (high salt conditions) is given as 6 ppm.
As to “LB-9827-3B-21E10: LBNL variant generated through gene shuffling of the LB-9827-1 mature peptide coding sequence (LSKYGGECSRAHNTCTYRKGGKNQVVNCPSAANKKCKSDRHHCEYDEYHKRVDCQTPV; Synthetic peptide LB-9827-3B-21E10)”, the “In vitro antifungal activity … (DMA)” value in experiment [1] (high salt conditions) is reported as 30 ppm. Besides, the “In vitro antifungal activity (IC50) … (CGR)” value in experiment [2] (high salt conditions) stood at 1.25 ppm.
With “LB-9827-3B-26G11: LBNL variant generated through gene shuffling of the LB-9827-1 mature peptide coding sequence (LSKYGGECSKEHNTCKYLKGGKNQVVACPKAANKKCKTDRHHCEYDEYHKTVDCQTPV; Synthetic peptide LB-9827-3B-26G11)”, the “In vitro antifungal activity (IC50) … (CGR)” value in experiment [2] (high salt conditions) amounted to 0.63 ppm.
On to “LB-9827-3A-11E4: LBNL variant generated through gene shuffling of the LB-9827-1 mature peptide coding sequence (LSKYGGECSRKHNTCTYKKGGKNQIVNCPTAANKRCKTDRHHCEYDEYHRRVDCQTPV; LB-9827-3A-11E4)”, for which, in experiment [1] (high salt conditions), the “In vitro antifungal activity … (DMA)” value is recorded as 0.94 ppm. Also, the “In vitro antifungal activity (IC50) … (CGR)” value in experiment [2] (high salt conditions) is recorded as 1.25 ppm.
On to “LB-5220 (r2 6F2): LBNL variant generated through gene shuffling of the LB-5220 mature peptide coding sequence (LKYTGTCRRANNQCKYKGQNNRDTFVKCPTFANKKCTRDGEKCSFDSYSRAVTCD; LB-5220 (r2-6F2))”, for which the “In vitro antifungal activity … (DMA)” value is reported as 6 ppm in experiment [1] (high salt conditions) and 0.1 ppm in experiment [1] (low salt conditions). Moreover, the “In vitro antifungal activity (IC50) … (CGR)” value was found to be 12 ppm in experiment [2] (high salt conditions) and 0.4 ppm in experiment [2] (low salt conditions).
With “LB-9827-3B-25F2: LBNL variant generated through gene shuffling of the LB-9827-1 mature peptide coding sequence (LSKYGGECSREHNTCTYLKGGKNQVVACGSAANKKCKRDRHHCEYDDYHKTVDCQTPV; Synthetic peptide LB-9827-3B-25F2)”, the “In vitro antifungal activity … (DMA)” value in experiment [1] (high salt conditions) amounted to 7.5 ppm. Besides, the “In vitro antifungal activity (IC50) … (CGR)” value in experiment [2] (high salt conditions) was found to be 1.25 ppm.
The corresponding values for “LB-9827-3B-25G5: LBNL variant generated through gene shuffling of the LB-9827-1 mature peptide coding sequence (LSKYGGECSRAHNTCTYRKGGKNQVVKCGTAANKKCKSDRHHCEYDDYHKRVDCQTPV; Synthetic peptide LB-9827-3B-25G5)” are 0.47 ppm and 1.25 ppm.
With “LB-5220 (ps 1B4): LBNL variant generated through gene shuffling of the LB-5220 mature peptide coding sequence (LKYTGTCTRKNNQCKYRGQNNRDTFVKCPTFANKRCTRDGAPCSFDSYSRAVTCD; Synthetic peptide LB-5220 (ps-1B4))”, the results for the “In vitro antifungal activity … (DMA)” value in experiment [1] (high salt conditions) and in experiment [1] (low salt conditions) were 12 ppm and 0.1 ppm, respectively.
